Reference: patent US20230365589A1, “NOVEL AMINE DERIVATIVES” (Sumitomo Pharma Co., Ltd., priority 2020, published 2023)
Like-named read-outs stand apart in the source and are kept apart here.

How the values were obtained:
Assay type in all cases: biochemical
[1] = target: T1, DYRK3 (Homo sapiens, UniProt O43781); test: Inhibition test on activity of DYRK family, mobility shift assay (MSA): DYRK3
T1 construct: purchased Carna Biosciences, Inc. 04-133
T1 sequence (O43781 1-568 isoform O43781-2): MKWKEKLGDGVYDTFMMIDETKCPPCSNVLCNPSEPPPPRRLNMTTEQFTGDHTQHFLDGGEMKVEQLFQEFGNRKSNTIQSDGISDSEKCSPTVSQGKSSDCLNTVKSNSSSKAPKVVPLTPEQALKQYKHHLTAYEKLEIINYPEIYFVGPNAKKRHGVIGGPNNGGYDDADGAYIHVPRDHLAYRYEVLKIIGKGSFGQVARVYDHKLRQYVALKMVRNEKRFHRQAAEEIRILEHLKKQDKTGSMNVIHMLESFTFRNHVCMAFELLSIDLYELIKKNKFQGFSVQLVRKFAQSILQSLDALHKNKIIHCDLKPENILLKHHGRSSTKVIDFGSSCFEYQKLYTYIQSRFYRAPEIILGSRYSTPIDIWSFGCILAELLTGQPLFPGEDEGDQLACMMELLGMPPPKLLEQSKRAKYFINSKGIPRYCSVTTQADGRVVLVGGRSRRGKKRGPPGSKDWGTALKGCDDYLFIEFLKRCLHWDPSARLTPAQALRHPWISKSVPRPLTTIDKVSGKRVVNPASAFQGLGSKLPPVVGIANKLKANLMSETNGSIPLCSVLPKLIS
Description: (§1) [Inhibition Test on Activity of DYRK Family (DYRK1A, DYRK1B, DYRK2, and DYRK3)]
(§2) The kinase activity was measured by mobility shift assay (MSA) method using QuickScout Screening Assist™ MSA (commercially available kit manufactured by Carna Biosciences, Inc.). The substrate of the kinase reaction used was an FITC-labeled DYRKtide peptide included in the kit. An assay buffer [20 mM HEPES, 0.01% Triton X-100™, 2 mM dithiothreitol, pH 7.5]was used to create a substrate mixture solution with a substrate (4 μM), MgCl2(20 mM), and ATP (DYRK1A: 100 μM; DYRK1B: 200 μM; DYRK2: 40 μM; and DYRK3: 20 μM). In addition, kinases (DYRK1A: manufactured by Carna Biosciences, Inc., Cat. No. 04-130; DYRK1B: manufactured by Carna Biosciences, Inc., Cat. No. 04-131; DYRK2; manufactured by Carna Biosciences, Inc., Cat. No. 04-132; and DYRK3; manufactured by Carna Biosciences, Inc., Cat. No. 04-133) were diluted with the assay buffer to prepare enzyme solutions (DYRK1A: 0.2 ng/μL; DYRK1B: 0.08 ng/μL; DYRK2: 0.04 ng/μL; and DYRK3: 0.25 ng/μL). The 10 mM solution of the test compound in DMSO was further diluted with DMSO to 10 levels of the concentration (0.00003 mM, 0.0001 mM, 0.0003 mM, 0.001 mM, 0.003 mM, 0.01 mM, 0.03 mM, 0.1 mM, 0.3 mM, and 1 mM), each of which was subjected to 25-fold dilution with the assay buffer to obtain a drug solution (4% DMSO solution). 5 μL of the drug solution or a control solution (4% DMSO-assay buffer), 5 μL of the substrate mixture solution, and 10 μL of the enzyme solution were mixed in the wells of a polypropylene 384-well plate and allowed to react at room temperature for 1 hour, and then the reaction was quenched by adding 60 μL of the termination buffer included in the kit. Subsequently, the quantities of the substrates (S) and the phosphorylated substrate (P) in the reaction solution were measured using LabChip EZ Reader II system (manufactured by Caliper Life Sciences) according to the protocol of the assay kit.
(§3) The heights of the peaks of the “substrate” and the “phosphorylated substrate” were expressed as S and P, respectively, and a blank containing the assay buffer instead of the enzyme solution was also measured.
(§4) The inhibition rate (%) of the test compound was calculated according to the following equation:
(§5) Inhibition rate (%)=(1−(C−A)/(B−A))×100 • wherein, A, B, and C represent P/(P+S) of the blank well, P/(P+S) of the control solution well, and P/(P+S) of the compound-containing well, respectively.
(§6) The IC50 value was calculated via a regression analysis of the inhibition rate and the test compound concentration (logarithmic value).
(§7) The inhibiting activities of representative compounds of the present invention are shown against DYRK1A, DYRK1B, DYRK2, and DYRK3 in Tables.

[2] = target: T2, DYRK1A (Homo sapiens, UniProt Q13627); test: Inhibition test on activity of DYRK family, mobility shift assay (MSA): DYRK1A
T2 construct: purchased Carna Biosciences, Inc. 04-130
Description: as §1, §2, §3, §4, §5, §6

[3] = target: T3, DYRK2 (Homo sapiens, UniProt Q92630); test: Inhibition test on activity of DYRK family, mobility shift assay (MSA): DYRK2
T3 construct: purchased Carna Biosciences, Inc. 04-132
T3 sequence (Q92630 74-601 limits assumed): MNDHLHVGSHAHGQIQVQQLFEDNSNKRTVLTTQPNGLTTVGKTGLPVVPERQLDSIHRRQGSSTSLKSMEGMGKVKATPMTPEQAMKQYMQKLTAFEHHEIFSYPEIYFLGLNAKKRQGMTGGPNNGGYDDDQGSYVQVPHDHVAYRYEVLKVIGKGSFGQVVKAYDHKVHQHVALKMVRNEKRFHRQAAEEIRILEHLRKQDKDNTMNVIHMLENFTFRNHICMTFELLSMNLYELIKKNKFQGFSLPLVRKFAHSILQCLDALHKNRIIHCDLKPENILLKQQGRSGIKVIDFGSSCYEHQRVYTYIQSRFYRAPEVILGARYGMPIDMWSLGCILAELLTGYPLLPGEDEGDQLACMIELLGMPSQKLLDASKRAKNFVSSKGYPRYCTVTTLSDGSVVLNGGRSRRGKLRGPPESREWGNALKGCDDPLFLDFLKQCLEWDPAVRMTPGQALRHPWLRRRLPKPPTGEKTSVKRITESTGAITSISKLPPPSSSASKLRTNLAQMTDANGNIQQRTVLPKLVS
Description: as §1, §2, §3, §4, §5, §6, §7

[4] = read-out: Inhibitory activity DYRK 3
[5] = read-out: Inhibitory activity DYRK 1A
[6] = read-out: Inhibitory activity DYRK 2
[7] = MSA, FITC-labeled DYRKtide peptide, ATP 20 μM, read-out: Inhibitory activity DYRK 3 (IC50 class)
[8] = MSA, FITC-labeled DYRKtide peptide, ATP 100 μM, read-out: Inhibitory activity DYRK 1A (IC50 class)
[9] = MSA, FITC-labeled DYRKtide peptide, ATP 40 μM, read-out: Inhibitory activity DYRK 2 (IC50 class)

| Compound | IC50 [1, 4] [nM] | IC50 [2, 5] [nM] | IC50 [3, 6] [nM] | IC50 [1, 7] [nM] | IC50 [2, 8] [nM] | IC50 [3, 9] [nM] |
| --- | --- | --- | --- | --- | --- | --- |
| O=C1N[C@H]2CCCN(C3CC3)C[C@H]2N1c1nc2c3c(ccc2s1)OCC3 (racemic) [Example 104, rac-(3aR,8aS)-5-cyclopropyl-3-(7,8-dihydrofuro[3,2-e][1,3]benzothiazol-2-yl)octahydroimidazo[4,5-c]azepin-2(1H)-one] | 100 to 1000 | < 10 | 100 to 1000 | – | – | – |
| O=C1N[C@H]2COCC[C@H]2N1c1nc2c3c(ccc2s1)OCO3 [Example 21, (3aR,7aR)-1-(2H-[1,3]dioxolo[4,5-e][1,3]benzothiazol-7-yl)hexahydropyrano[3,4-d]imidazol-2(3H)-one] | – | – | – | 100 to 1000 | < 10 | 100 to 1000 |
| O=C1N[C@H]2COC(F)C[C@H]2N1c1nc2c3c(ccc2s1)OCC3 (stereo partly drawn) [Example 151, (3aR,7aR)-1-(7,8-Dihydrofuro[3,2-e][1,3]benzothiazol-2-yl)-6-fluorohexahydropyrano[3,4-d]imidazol-2(3H)-one] | – | – | – | 10 to 100 | < 10 | 100 to 1000 |
| O=C1N[C@H]2CCN(C3CNC3)C[C@H]2N1c1nc2c3c(ccc2s1)OCC3 [Example 53] | – | – | – | 100 to 1000 | 100 to 1000 | ≥ 1000 |
| O=C1N[C@@H]2CCN(C3CC3)C[C@@H]2N1c1nc2c3c(ccc2s1)OCO3 (single isomer, unassigned) [Example 35] | – | – | – | ≥ 1000 | ≥ 1000 | ≥ 1000 |
| O=C1N[C@H]2CCCNC[C@H]2N1c1nc2c3c(ccc2s1)OCC3 [Example 4] | – | – | – | 100 to 1000 | 100 to 1000 | ≥ 1000 |
| CN1CC[C@@H]2[C@H](C1)NC(=O)N2c1nc2c3c(ccc2s1)OCO3 (racemic) [Example 78, rac-(3aR,7aS)-1-(2H-[1,3]dioxolo[4,5-e][1,3]benzothiazol-7-yl)-5-methyloctahydro-2H-imidazo[4,5-c]pyridin-2-one] | – | – | – | 100 to 1000 | 10 to 100 | ≥ 1000 |
| COC(=O)[C@H]1C[C@@H]2[C@H](CO1)NC(=O)N2c1nc2c3c(ccc2s1)OCC3 [Example 141] | – | – | – | ≥ 1000 | 10 to 100 | ≥ 1000 |
| O=C1N[C@H]2CCCN(C3COC3)C[C@H]2N1c1nc2c3c(ccc2s1)OCC3 (racemic) [Example 73, rac-(3aR,8aS)-3-(7,8-dihydrofuro[3,2-e][1,3]benzothiazol-2-yl)-5-(oxetan-3-yl)octahydroimidazo[4,5-c]azepin-2(1H)-one] | – | – | – | ≥ 1000 | < 10 | 100 to 1000 |
| CN1CC[C@@H]2[C@H](C1)NC(=O)N2c1nc2c3c(ccc2s1)OCCO3 (racemic) [Example 77, rac-(3aR,7aS)-1-(7,8-dihydro[1,4]dioxino[2,3-e][1,3]benzothiazol-2-yl)-5-methyloctahydro-2H-imidazo[4,5-c]pyridin-2-one] | – | – | – | 100 to 1000 | 10 to 100 | ≥ 1000 |
| O=C1N[C@H]2CCN(C3CC3)C[C@H]2N1c1nc2c3c(ccc2s1)OCC3 (racemic) [Example 98, rac-(3aR,7aS)-5-cyclopropyl-3-(7,8-dihydrofuro[3,2-e][1,3]benzothiazol-2-yl)octahydro-2H-imidazo[4,5-c]pyridin-2-one] | ≥ 1000 | < 10 | ≥ 1000 | – | – | – |
| CN1CCC[C@@H]2NC(=O)N(c3nc4c5c(ccc4s3)OCO5)[C@@H]2C1 (racemic) [Example 85, rac-(3aR,8aS)-3-(2H-[1,3]dioxolo[4,5-e][1,3]benzothiazol-7-yl)-5-methyloctahydroimidazo[4,5-c]azepin-2(1H)-one] | – | – | – | ≥ 1000 | 10 to 100 | ≥ 1000 |
| O=C1N[C@@H]2CCOC[C@H]2N1c1nc2c3c(ccc2s1)OCC3 [Example 125] | 100 to 1000 | 10 to 100 | 100 to 1000 | – | – | – |
| CN1CC[C@@H]2NC(=O)N(c3nc4c5c(ccc4s3)OCCO5)[C@@H]2C1 (racemic) [Example 76, rac-(3aR,7aS)-3-(7,8-dihydro[1,4]dioxino[2,3-e][1,3]benzothiazol-2-yl)-5-methyloctahydro-2H-imidazo[4,5-c]pyridin-2-one] | – | – | – | ≥ 1000 | 10 to 100 | ≥ 1000 |
| O=C1N[C@H]2COC[C@H]2N1c1nc2c3c(ccc2s1)OCC3 [Example 65, (3aR,6aS)-1-(7,8-dihydrofuro[3,2-e][1,3]benzothiazol-2-yl)tetrahydro-1H-furo[3,4-d]imidazol-2(3H)-one] | – | – | – | 10 to 100 | < 10 | 10 to 100 |
| C#CCN1CC[C@H]2NC(=O)N(c3nc4c5c(ccc4s3)OCC5)[C@H]2C1 (single isomer, unassigned) [Example 113] | – | 100 to 1000 | ≥ 1000 | – | – | – |
| CN1CC[C@@H]2NC(=O)N(c3nc4c5c(ccc4s3)OCC5)[C@@H]2C12CC2 [Example 69] | – | – | – | ≥ 1000 | – | ≥ 1000 |
| O=C1N[C@H]2CCN(C3COC3)C[C@H]2N1c1nc2c3c(ccc2s1)OCC3 (racemic) [Example 71, rac-(3aR,7aS)-3-(7,8-dihydrofuro[3,2-e][1,3]benzothiazol-2-yl)-5-(oxetan-3-yl)octahydro-2H-imidazo[4,5-c]pyridin-2-one] | – | – | – | ≥ 1000 | – | ≥ 1000 |
| O=C1N[C@H]2CNCC[C@H]2N1c1nc2c3c(ccc2s1)OCO3 [Example 52] | – | – | – | 100 to 1000 | – | 100 to 1000 |
| O=C1N[C@H]2COCC[C@H]2N1c1nc2c3c(ccc2s1)OCCO3 [Example 37, (3aR,7aR)-1-(7,8-dihydro[1,4]dioxino[2,3-e][1,3]benzothiazol-2-yl)hexahydropyrano[3,4-d]imidazol-2(3H)-one] | – | – | – | 100 to 1000 | – | 100 to 1000 |
| O=C1N[C@H]2CCN(C3COC3)C[C@@H]2N1c1nc2c3c(ccc2s1)OCC3 [Example 19, (3aS,7aS)-3-(7,8-dihydrofuro[3,2-e][1,3]benzothiazol-2-yl)-5-(oxetan-3-yl)octahydro-2H-imidazo[4,5-c]pyridin-2-one] | – | – | – | 100 to 1000 | – | 100 to 1000 |
| CN1CC[C@H]2NC(=O)N(c3nc4c5c(ccc4s3)OCC5)[C@@H]2C12CC2 [Example 70] | – | – | – | 100 to 1000 | – | ≥ 1000 |
